Values after ≈ are worked out from the molar mass of the structure shown.
Tests used:
[1] = system: Pseudomonas aeruginosa ATCC 9027; experiment: MIC, agar dilution method; assay type: cell-based; details: ATCC9027, Mueller-Hinton agar, aerobic, 16-20 h at 36° C.
Text: (§1) The formulations prepared according to Examples 11, 12 and 13, were used to evaluate the Minimal Inhibitory Concentration (MIC) required to inhibit the growth of the following organisms: Burkholderia cepacia, Haemophilus influenzae, and Pseudomonas aeruginosa, using the agar dilution method based on DIN 58940 and 58944 according to NCCLS (National Committee on Clinical Laboratory Standards) criteria. […] To determine MIC, Petri dishes containing Mueller-Hinton agar supplemented with agar-agar, or chocolate agar were prepared. Dilutions of the formulations prepared under Examples 11, 12, 13 and 14 were prepared in aqua purificata, resulting in solutions containing 1000 μg drug per ml (with exception of the formulation only containing levofloxacin, where a dilution containing 640 μg/ml was prepared). […] Two agar plates were poured for each test concentration and culture medium. After solidification and drying, the agar plates were inoculated with the test organisms and incubated as described in Table 7. [table] The MIC was given as the lowest concentration of the active substance at which there was no macroscopically visible growth. Minimal, barely visible growth or few small individual colonies were evaluated as inhibition. The MIC readings are generally subject to an error of up to two dilutions. […] For Haemophilus spp., it was defined that a breakpoint ≦4 μg/ml is classified as susceptible.

[2] = system: Haemophilus influenzae ATCC 49247; experiment: MIC, agar dilution method; assay type: cell-based; details: for MIC: ATCC49247, Chocolat agar, microaerophile, 16-20 h at 36° C.
Text: as §1

[3] = system: Burkholderia cepacia ATCC 17759; experiment: MIC, agar dilution method; assay type: cell-based; details: ATCC17759, Mueller-Hinton agar, aerobic, 16-20 h at 36° C.
Text: as §1

[4] = cited from earlier work
[5] = after single oral dose administration

Compound	MIC [1]	susceptibility classification [2]	MIC [2]	MIC [3]	concentration in sputum exceeds the plasma concentration ([4]; after multiple oral doses)	concentration in alveolar macrophages exceeds plasma concentration [4, 5]	concentration in bronchial mucosa exceeds plasma concentration [4, 5]
NC[C@H]1O[C@H](O[C@H]2[C@H](O)[C@@H](O[C@H]3O[C@H](CO)[C@@H](O)[C@H](N)[C@H]3O)[C@H](N)C[C@@H]2N)[C@H](N)C[C@@H]1O [Tobr., tobramycin]	0.781 µg/mL (≈ 1.67 µM)	resistant	50 µg/mL (≈ 107 µM)	50 µg/mL (≈ 107 µM)			
CC[C@H]1OC(=O)[C@H](C)[C@@H](O[C@H]2C[C@@](C)(OC)[C@@H](O)[C@H](C)O2)[C@H](C)[C@@H](O[C@@H]2O[C@H](C)C[C@H](N(C)C)[C@H]2O)[C@](C)(O)C[C@@H](C)CN(C)[C@H](C)[C@@H](O)[C@]1(C)O [Azi., azithromycin]	6.25 µg/mL (≈ 8.34 µM)	resistant	25 µg/mL (≈ 33.4 µM)	25 µg/mL (≈ 33.4 µM)	67 fold	170 fold	29 fold
C[C@H]1COc2c(N3CCN(C)CC3)c(F)cc3c(=O)c(C(=O)O)cn1c23 [Levo., levofloxacin]	0.5 µg/mL (≈ 1.38 µM)		0.25 µg/mL (≈ 0.692 µM)	4 µg/mL (≈ 11.1 µM)			
